Results: ChEMBL document CHEMBL1201862, “PubChem BioAssay data set” (2004)
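A five-concentration, 48-hour dose response in 96-well plates underlies each endpoint, interpolated linearly between surrounding concentrations. Abbreviation: GI50, concentration required for 50% inhibition of growth.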 Active and inactive are the calls of the source. Cut-off read from the data, not from the text of the source: active = GI50 up to about 1.1 µM and inactive = higher.

How the values were obtained:
Experiment in all cases: NCI-60 cell line screen, 48 h
A549 = system: A549
HCC 2998 = system: HCC 2998
HCT-15 = system: HCT-15
HL-60 = system: HL-60
HOP-62 = system: HOP-62
HT-29 = system: HT-29
K562 = system: K562
M14 = system: M14
MCF7 = system: MCF7
MDA-MB-435 = system: MDA-MB-435
MDA-N = system: MDA-N
NCI-H522 = system: NCI-H522
NCI/ADR-RES = system: NCI/ADR-RES
OVCAR-5 = system: OVCAR-5
OVCAR-8 = system: OVCAR-8
SNB-19 = system: SNB-19
SR = system: SR
TK-10 = system: TK-10
U-251 = system: U-251
UO-31 = system: UO-31

Row | Structure (SMILES) | GI50 (A549) | GI50 (HCC 2998) | GI50 (HCT-15) [µM] | GI50 (HL-60) | GI50 (HOP-62) | GI50 (HT-29) | GI50 (K562) | GI50 (M14) | GI50 (MCF7) | GI50 (MDA-MB-435) | GI50 (MDA-N) | GI50 (NCI-H522) | GI50 (NCI/ADR-RES) | GI50 (OVCAR-5) | GI50 (OVCAR-8) | GI50 (SNB-19) | GI50 (SR) | GI50 (TK-10) | GI50 (U-251) | GI50 (UO-31)
1 | Cc1c(CNc2ccc(Cl)c(Cl)c2Cl)cnc2nc(N)nc(N)c12 | 0.0352 µM (active) | 3.17 µM (inactive) | 0.184 | 0.607 µM (active) | 1.04 µM (active) | 0.162 µM (active) | < 0.0132 µM (active) | 0.942 µM (active) | 0.792 µM (active) | 0.107 µM (active) | 0.0515 µM (active) | 4.46 µM (inactive) | > 100 µM (inactive) | 11 µM (inactive) | 0.053 µM (active) | 14.6 µM (inactive) | 0.357 µM (active) | 14.1 µM (inactive) | 0.172 µM (active) | 2.44 µM (inactive)
2 | Cc1ccc(C(=O)/C=C2/Nc3ccc([N+](=O)[O-])cc3N/C2=C/C(=O)c2ccc(C)cc2)cc1 | > 100 µM (inactive) | > 100 µM (inactive) | 90.8 | 34.7 µM (inactive) | 15.3 µM (inactive) | > 100 µM (inactive) | 85.5 µM (inactive) | > 100 µM (inactive) | 84.1 µM (inactive) | > 100 µM (inactive) | > 100 µM (inactive) | 47.1 µM (inactive) | 47.6 µM (inactive) | > 100 µM (inactive) | 36 µM (inactive) | 43.8 µM (inactive) | 54.2 µM (inactive) | > 100 µM (inactive) | 27.7 µM (inactive) | > 100 µM (inactive)
3 | COc1ccc(/C=C(\Cl)c2ccc(OC)c(OC)c2)cc1OC | > 100 µM (inactive) | > 100 µM (inactive) | > 100 | > 100 µM (inactive) | > 82.8 µM (inactive) | > 100 µM (inactive) | > 100 µM (inactive) | > 100 µM (inactive) | > 100 µM (inactive) | > 100 µM (inactive) | > 100 µM (inactive) | 22.9 µM (inactive) | > 100 µM (inactive) | > 100 µM (inactive) | > 100 µM (inactive) | > 100 µM (inactive) | > 100 µM (inactive) | > 100 µM (inactive) | > 100 µM (inactive) | > 100 µM (inactive)
4 | CCOC(=O)C(NC(=O)c1ccccc1)(Nc1ccc(S(=O)(=O)Nc2ccc(OC)nn2)cc1)C(F)(F)F (stereo not given) | > 100 µM (inactive) | > 100 µM (inactive) | > 100 | > 100 µM (inactive) | > 100 µM (inactive) | > 100 µM (inactive) | > 100 µM (inactive) | > 100 µM (inactive) | > 100 µM (inactive) | > 100 µM (inactive) | > 100 µM (inactive) | > 100 µM (inactive) | > 100 µM (inactive) | > 100 µM (inactive) | > 100 µM (inactive) | > 100 µM (inactive) | > 100 µM (inactive) | > 100 µM (inactive) | > 100 µM (inactive) | > 100 µM (inactive)
5 | O=c1[nH]c(=O)c2c3n(cc2[nH]1)CCCCC3 | > 100 µM (inactive) | > 100 µM (inactive) | > 100 | > 100 µM (inactive) | > 100 µM (inactive) | > 100 µM (inactive) | > 100 µM (inactive) | > 100 µM (inactive) | > 100 µM (inactive) | > 100 µM (inactive) | > 100 µM (inactive) | > 100 µM (inactive) | > 100 µM (inactive) | > 100 µM (inactive) | > 100 µM (inactive) | > 100 µM (inactive) | > 100 µM (inactive) | 17.5 µM (inactive) | > 100 µM (inactive) | > 100 µM (inactive)
6 | CSc1nc(NC2OCC(OC(C)=O)C(OC(C)=O)C2OC(C)=O)c(/N=C\C=N\c2c(NC3OCC(OC(C)=O)C(OC(C)=O)C3OC(C)=O)nc(SC)[nH]c2=O)c(=O)[nH]1 (stereo not given) | > 100 µM (inactive) | > 100 µM (inactive) | > 100 | > 100 µM (inactive) | 30.5 µM (inactive) | > 100 µM (inactive) | > 100 µM (inactive) | > 100 µM (inactive) | 46.5 µM (inactive) | > 100 µM (inactive) | > 100 µM (inactive) | > 61.2 µM (inactive) | 34.3 µM (inactive) | > 71.8 µM (inactive) | 46.7 µM (inactive) | 46.3 µM (inactive) | > 100 µM (inactive) | 56.9 µM (inactive) | 56.4 µM (inactive) | > 83 µM (inactive)
7 | Clc1ccc(C2c3ccccc3-c3nc4ccccc4n32)cc1 (stereo not given) | 7.33 µM (inactive) | 18.9 µM (inactive) | 17.3 | 3.65 µM (inactive) | 16.9 µM (inactive) | 20.9 µM (inactive) | > 22.4 µM (inactive) | 31.8 µM (inactive) | 18.3 µM (inactive) | 32.7 µM (inactive) | 51.3 µM (inactive) | 11.6 µM (inactive) | 11.8 µM (inactive) | 25.4 µM (inactive) | 18.2 µM (inactive) | 31.7 µM (inactive) | 8.99 µM (inactive) | > 66.7 µM (inactive) | 24.3 µM (inactive) | 4.05 µM (inactive)
8 | Cc1ccc(S(=O)(=O)n2cc(C#N)c(C#N)c2)cc1 | 24.7 µM (inactive) | 24.3 µM (inactive) | 17.9 | 26.5 µM (inactive) | 24.5 µM (inactive) | 23.9 µM (inactive) | 33.3 µM (inactive) | 22.4 µM (inactive) | 22.3 µM (inactive) | 19.8 µM (inactive) | 27.1 µM (inactive) | 15.4 µM (inactive) | 31.8 µM (inactive) | 27.9 µM (inactive) | 31.8 µM (inactive) | > 10 µM (inactive) | 24.4 µM (inactive) | 38.3 µM (inactive) | 13.3 µM (inactive) | 26.9 µM (inactive)
9 | COc1ccc(/C=C(\C(=O)OCC(C)C)c2ccc(OC)c(OC)c2)cc1OC | > 100 µM (inactive) | > 100 µM (inactive) | > 100 | > 100 µM (inactive) | 74 µM (inactive) | > 100 µM (inactive) | > 100 µM (inactive) | 32.5 µM (inactive) | > 100 µM (inactive) | > 100 µM (inactive) | > 100 µM (inactive) | > 100 µM (inactive) | > 100 µM (inactive) | > 100 µM (inactive) | > 100 µM (inactive) | > 100 µM (inactive) | > 100 µM (inactive) | > 100 µM (inactive) | 56.2 µM (inactive) | > 100 µM (inactive)
